Experimental data reported in PubChem BioAssay (NCI).
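Exposure lasted 48 hours, with cells grown in 96-well plates and compounds tested at five concentrations. GI50: concentration for 50% inhibition of growth. TGI: concentration producing complete growth inhibition.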

Key:
Assay in all cases: growth of human tumour cells (NCI), 48 h; in the data active = GI50 below about 0.43 µM; inactive = the rest
[1] = tested on: 786-0 renal
[2] = tested on: A498 renal
[3] = tested on: A549 NSCLC
[4] = tested on: ACHN renal
[5] = tested on: BT-549 breast
[6] = tested on: CAKI-1 renal
[7] = tested on: CCRF-CEM leukemia
[8] = tested on: COLO 205 colon
[9] = tested on: DU-145 prostate
[10] = tested on: EKVX NSCLC
[11] = tested on: HCC-2998 colon
[12] = tested on: HCT-116 colon
[13] = tested on: HCT-15 colon
[14] = tested on: HL-60(TB) leukemia
[15] = tested on: HOP-62 NSCLC
[16] = tested on: HOP-92 NSCLC
[17] = tested on: HS 578T breast
[18] = tested on: HT29 colon
[19] = tested on: IGROV1 ovarian
[20] = tested on: K-562 leukemia
[21] = tested on: KM12 colon
[22] = tested on: LOX IMVI melanoma
[23] = tested on: M14 melanoma
[24] = tested on: MALME-3M melanoma
[25] = tested on: MCF7 breast
[26] = tested on: MDA-MB-231 breast
[27] = tested on: MDA-MB-435
[28] = tested on: MDA-MB-468 breast
[29] = tested on: MOLT-4 leukemia
[30] = tested on: NCI-H226 lung
[31] = tested on: NCI-H23 lung
[32] = tested on: NCI-H460 lung
[33] = tested on: NCI-H522 lung
[34] = tested on: NCI/ADR-RES ovarian
[35] = tested on: OVCAR-3 ovarian
[36] = tested on: OVCAR-4 ovarian
[37] = tested on: OVCAR-5 ovarian
[38] = tested on: OVCAR-8 ovarian
[39] = tested on: PC-3 prostate
[40] = tested on: RPMI-8226 leukemia
[41] = tested on: RXF 393 renal
[42] = tested on: SF-268 CNS
[43] = tested on: SF-295 CNS
[44] = tested on: SF-539 CNS
[45] = tested on: SK-MEL-2 melanoma
[46] = tested on: SK-MEL-28 melanoma
[47] = tested on: SK-MEL-5 melanoma
[48] = tested on: SK-OV-3 ovarian
[49] = tested on: SN12C renal
[50] = tested on: SNB-19 CNS
[51] = tested on: SNB-75 CNS
[52] = tested on: SR leukemia
[53] = tested on: SW-620 colon
[54] = tested on: T-47D breast
[55] = tested on: TK-10 renal
[56] = tested on: U251 CNS
[57] = tested on: UACC-257 melanoma
[58] = tested on: UACC-62 melanoma
[59] = tested on: UO-31 renal

C#C[C@]1(O)CC[C@H]2[C@@H]3CC=C4c5sc(Nc6cc(C)cc(C)n6)nc5CC[C@]4(C)[C@H]3CC[C@@]21C
inactive: GI50 [1] > 100 µM | GI50 [2] > 100 µM | GI50 [3] > 100 µM | GI50 [4] > 100 µM | GI50 [5] > 100 µM | GI50 [6] > 100 µM | GI50 [7] > 100 µM | GI50 [8] > 100 µM | GI50 [9] > 100 µM | GI50 [10] > 100 µM | GI50 [11] > 100 µM | GI50 [12] > 100 µM | GI50 [13] > 100 µM | GI50 [14] > 100 µM | GI50 [15] > 100 µM | GI50 [16] > 100 µM | GI50 [17] > 100 µM | GI50 [18] > 100 µM | GI50 [19] > 100 µM | GI50 [20] > 100 µM | GI50 [21] > 100 µM | GI50 [22] > 100 µM | GI50 [23] > 100 µM | GI50 [24] > 100 µM | GI50 [25] > 100 µM | GI50 [26] > 100 µM | GI50 [27] > 100 µM | GI50 [28] > 100 µM | GI50 [29] > 100 µM | GI50 [30] > 100 µM | GI50 [31] > 100 µM | GI50 [32] > 100 µM | GI50 [33] > 100 µM | GI50 [34] > 100 µM | GI50 [35] > 100 µM | GI50 [36] > 100 µM | GI50 [37] > 100 µM | GI50 [38] > 100 µM | GI50 [39] > 100 µM | GI50 [40] > 100 µM | GI50 [41] > 100 µM | GI50 [42] > 100 µM | GI50 [43] > 100 µM | GI50 [44] > 100 µM | GI50 [45] > 100 µM | GI50 [46] > 100 µM | GI50 [47] > 100 µM | GI50 [48] > 100 µM | GI50 [49] > 100 µM | GI50 [50] > 100 µM | GI50 [51] > 100 µM | GI50 [52] > 100 µM | GI50 [53] > 100 µM | GI50 [54] > 100 µM | GI50 [55] > 100 µM | GI50 [56] > 100 µM | GI50 [57] > 100 µM | GI50 [58] > 100 µM | GI50 [59] > 100 µM
> 100 µM: TGI [1] | TGI [2] | TGI [3] | TGI [4] | TGI [5] | TGI [6] | TGI [7] | TGI [8] | TGI [9] | TGI [10] | TGI [11] | TGI [12] | TGI [13] | TGI [14] | TGI [15] | TGI [16] | TGI [17] | TGI [18] | TGI [19] | TGI [20] | TGI [21] | TGI [22] | TGI [23] | TGI [24] | TGI [25] | TGI [26] | TGI [27] | TGI [28] | TGI [29] | TGI [30] | TGI [31] | TGI [32] | TGI [33] | TGI [34] | TGI [35] | TGI [36] | TGI [37] | TGI [38] | TGI [39] | TGI [40] | TGI [41] | TGI [42] | TGI [43] | TGI [44] | TGI [45] | TGI [46] | TGI [47] | TGI [48] | TGI [49] | TGI [50] | TGI [51] | TGI [52] | TGI [53] | TGI [54] | TGI [55] | TGI [56] | TGI [57] | TGI [58] | TGI [59]
